Measured values from ChEMBL document CHEMBL4261654, “Synthesis and in vitro antitumor activity of novel alkenyl derivatives of pyridoxine, bioisosteric analogs of feruloyl methane” (Bioorg Med Chem, 2018).
Calls of active or inactive are those of the source. The calls are words filed in the database; no cut-off is given here.

Tests used:
PC-3 [1] = experiment: Induction of apoptosis in human PC3 cells assessed as early apoptotic cells at 150 uM after 24 hrs by Annexin V-PE/7-AAD staining-based flow cytometric analysis (reference value: 2%); type: functional
PC-3 [2] = experiment: Antiproliferative activity in human PC3 cells at 2 to 10 uM measured during 120 hrs each 15 mins by RTCA DP based cellular impedance analysis; type: functional, cell-based
PC-3 [3] = experiment: Induction of apoptosis in human PC3 cells assessed as intracellular ROS levels by measuring fluoresence intensity at 150 uM after 24 hrs by DCFH-DA staining-based flow cytometric analysis (reference value: 3176 +/- 398); type: functional
PC-3 [4] = experiment: Induction of apoptosis in human PC3 cells assessed as early apoptotic cells at 50 uM after 24 hrs by Annexin V-PE/7-AAD staining-based flow cytometric analysis (reference value: 2%); type: functional
PC-3 [5] = experiment: Induction of apoptosis in human PC3 cells assessed as intracellular ROS levels by measuring fluoresence intensity at 50 uM after 24 hrs by DCFH-DA staining-based flow cytometric analysis (reference value: 3176 +/- 398); type: functional
SNB-19 = experiment: Antiproliferative activity against human SNB19 cells after 72 hrs by MTT assay; type: functional, cell-based; settings: SNB-19, 72 h
PC-3 [6] = experiment: Induction of apoptosis in human PC3 cells assessed as necrotic cells at 150 uM after 24 hrs by Annexin V-PE/7-AAD staining-based flow cytometric analysis (reference value: 14%); type: functional
PC-3 [7] = experiment: Cell cycle arrest in human PC3 cells assessed as accumulation at S phase at 10 uM after 72 hrs by RNase/propidium iodide staining-based flow cytometric analysis (reference value: 17 +/- 1%); type: functional
HEK293 = experiment: Antiproliferative activity against human HEK293 cells after 72 hrs by MTT assay; type: cell-based; settings: HEK293, 72 h
PC-3 [8] = experiment: Induction of mitochondrial membrane potential loss in human PC3 cells assessed as fluorescence intensity at 150 uM after 24 hrs by TMRE dye-based flow cytometric analysis (reference value: 10101 +/- 853); type: functional
MDA-MB-231 = experiment: Antiproliferative activity against human MDA-MB-231 cells after 72 hrs by MTT assay; type: functional, cell-based; settings: MDA-MB-231, 72 h
PC-3 [9] = experiment: Antimigratory activity in human PC3 cells up to 50 uM measured during 120 hrs each 15 mins by RTCA DP based cellular impedance analysis; type: functional
PC-3 [10] = experiment: Induction of apoptosis in human PC3 cells assessed as viable cells at 150 uM after 24 hrs by Annexin V-PE/7-AAD staining-based flow cytometric analysis (reference value: 70%); type: functional; settings: PC-3, 24 h, read-out: Activity
PC-3 [11] = experiment: Induction of apoptosis in human PC3 cells assessed as necrotic cells at 50 uM after 24 hrs by Annexin V-PE/7-AAD staining-based flow cytometric analysis (reference value: 14%); type: functional
M14 = experiment: Antiproliferative activity against human M14 cells after 72 hrs by MTT assay; type: functional, cell-based; settings: M14, 72 h
PC-3 [12] = experiment: Cell cycle arrest in human PC3 cells assessed as accumulation at S phase at 70 uM after 72 hrs by RNase/propidium iodide staining-based flow cytometric analysis (reference value: 17 +/- 1%); type: functional
PC-3 [13] = experiment: Induction of apoptosis in human PC3 cells assessed as late apoptotic cells at 150 uM after 24 hrs by Annexin V-PE/7-AAD staining-based flow cytometric analysis (reference value: 8%); type: functional
PC-3 [14] = experiment: Induction of apoptosis in human PC3 cells assessed as viable cells at 50 uM after 24 hrs by Annexin V-PE/7-AAD staining-based flow cytometric analysis (reference value: 70%); type: functional; settings: PC-3, 24 h, read-out: Activity
PC-3 [15] = experiment: Cell cycle arrest in human PC3 cells assessed as accumulation at G2/M phase at 10 uM after 72 hrs by RNase/propidium iodide staining-based flow cytometric analysis (reference value: 20 +/- 3%); type: functional
PC-3 [16] = experiment: Induction of mitochondrial membrane potential loss in human PC3 cells assessed as fluorescence intensity at 50 uM after 24 hrs by TMRE dye-based flow cytometric analysis (reference value: 10101 +/- 853); type: functional
PC-3 [17] = experiment: Antiproliferative activity in human PC3 cells up to 50 uM measured during 120 hrs each 15 mins by RTCA DP based cellular impedance analysis; type: functional
A498 = experiment: Antiproliferative activity against human A498 cells after 72 hrs by MTT assay; type: functional, cell-based; settings: A498, 72 h
PC-3 [18] = experiment: Cell cycle arrest in human PC3 cells assessed as accumulation at G2/M phase at 70 uM after 72 hrs by RNase/propidium iodide staining-based flow cytometric analysis (reference value: 20 +/- 3%); type: functional
PC-3 [19] = experiment: Antiproliferative activity against human PC3 cells after 72 hrs by MTT assay; type: functional, cell-based; settings: PC-3, 72 h
PC-3 [20] = experiment: Cell cycle arrest in human PC3 cells assessed as accumulation at G0/G1 phase at 10 uM after 72 hrs by RNase/propidium iodide staining-based flow cytometric analysis (reference value: 61 +/- 3%); type: functional
HCT-116 = experiment: Antiproliferative activity against human HCT116 cells after 72 hrs by MTT assay; type: functional, cell-based; settings: HCT-116, 72 h
[21] = Antiproliferative activity against HSF cells after 72 hrs by MTT assay; type: cell-based; settings: Homo sapiens
OVCAR-4 = experiment: Antiproliferative activity against human OVCAR4 cells after 72 hrs by MTT assay; type: functional, cell-based; settings: OVCAR-4, 72 h
NCI-H322M = experiment: Antiproliferative activity against human NCI-H322M cells after 72 hrs by MTT assay; type: functional, cell-based
MCF7 = experiment: Antiproliferative activity against human MCF7 cells after 72 hrs by MTT assay; type: functional, cell-based; settings: MCF7, 72 h
PC-3 [22] = experiment: Induction of apoptosis in human PC3 cells assessed as late apoptotic cells at 50 uM after 24 hrs by Annexin V-PE/7-AAD staining-based flow cytometric analysis (reference value: 8%); type: functional
HCT-15 = experiment: Antiproliferative activity against human HCT15 cells after 72 hrs by MTT assay; type: functional, cell-based; settings: HCT-15, 72 h
PC-3 [23] = experiment: Cell cycle arrest in human PC3 cells assessed as accumulation at G0/G1 phase at 70 uM after 72 hrs by RNase/propidium iodide staining-based flow cytometric analysis (reference value: 61 +/- 3%); type: functional
[24] = Antioxidant activity assessed as ferric ion reducing activity at 20 to 320 umol after 20 mins by FRAP assay; type: functional

Structure (SMILES): COc1cc(/C=C/C(C)=O)ccc1O [DEHYDROZINGERONE]
- Activity (PC-3 [1]): 3%
- Activity (PC-3 [2]): inactive
- Flu intensity (PC-3 [3]): 7502
- Activity (PC-3 [4]): 3%
- Flu intensity (PC-3 [5]): 2024
- IC50 (SNB-19): 138 µM
- Activity (PC-3 [6]): 16%
- Activity (PC-3 [7]): 18%
- IC50 (HEK293): 64 µM
- Flu intensity (PC-3 [8]): 7859
- IC50 (MDA-MB-231): 86 µM
- inhibition (INH) (PC-3 [9]): 78%
- viability at 150 µM (PC-3 [10]): 64%
- Activity (PC-3 [11]): 13%
- IC50 (M14): 550 µM
- Activity (PC-3 [12]): 17%
- Activity (PC-3 [13]): 16%
- viability at 50 µM (PC-3 [14]): 70%
- Activity (PC-3 [15]): 21%
- Flu intensity (PC-3 [16]): 7701
- inhibition (INH) (PC-3 [17]): 47%
- IC50 (A498): 125 µM
- Activity (PC-3 [18]): 31%
- IC50 (PC-3 [19]): 68 µM
- Activity (PC-3 [20]): 60%
- IC50 (HCT-116): 70 µM
- IC50 [21]: 176 µM
- IC50 (OVCAR-4): 139 µM
- IC50 (NCI-H322M): 96 µM
- IC50 (MCF7): 31 µM
- Activity (PC-3 [22]): 13%
- IC50 (HCT-15): 65 µM
- Activity (PC-3 [23]): 49%
- Activity [24]: Active
